Source: US20200171056A1, “SULFONYLUREA COMPOUNDS IN THE TREATMENT OF DISEASE ASSOCIATED WITH UV-INDUCED DAMAGE” (CeMM - Forschungszentrum für Molekulare Medizin GmbH, priority 2017, published 2020)

Legend:
Format in all cases: cell-based, human
[1] = system: XPA-deficient HAP1 cells (ΔXPA); test: High-throughput drug screen for agents that alleviate UV sensitivity of NER-deficient cells; details: drug at five times maximal plasma concentration for 24 hours, then UV; viability after 3 days
Source text: An in-house drug library of around 300 compounds representing all structurally distinct Food and Drug Administration (FDA) approved compounds was used to allow for potential drug repurposing. First, an NER-deficient cell line was generated by making a frameshift mutation in XPA, one of the central components of NER that functions in both TC-NER and GG-NER, utilizing CRISPR-Cas9 in the human near haploid cell line HAP1 (denoted ΔXPA) (FIG. 5A). […] Next, ΔXPA and wildtype cells were exposed to the drug library (with each drug used at five times maximal plasma concentration) for 24 hours, followed by UV exposure (at a dose selected to kill ΔXPA cells but not wildtype cells) (FIGS. 1A and 5D). The compounds were scored based on their efficiency to improve cellular survival of ΔXPA cells, compared to wildtype cells (FIG. 1B). […]
Fifty nL of compound per well was transferred into 384-well plates (Corning 3712) from DMSO stock plates using acoustic transfer (Labcyte Echo 520). […] Three days later cell viability was determined using Cell Titer-Glo (Promega). […] For data analysis, the percentage of control was calculated and the signal of the DMSO irradiated sample was used to set values to 0% while the DMSO non-irradiated sample was used to set the values to 100%. […]

SUR1 transcript = test: SUR1 mRNA expression by quantitative reverse transcription PCR; details: ΔXPA cells, 0.5 mM for 6 hours, 15 J/M^2 UV (FIG. 9B)
Method: A. Fragments Per Kilobase Million (FPKM) for SUR1 and GAPDH in HAP1 WT cells compared, from RNA sequencing. B. mRNA expression of SUR1 transcript assessed by quantitative reverse transcription PCR in WT and ΔXPA cells with or without 0.5 mM acetohexamide treatment for 6 hours, followed by 15 J/M^2 UV irradiation and subsequent recovery as indicated. Expression of GAPDH was used as a reference. Error bars indicate SEM (n=3).
WT and ΔXPA HAP1 cells were harvested and RNA was isolated using phenol-chlorophorm extraction. After treatment with 1 μl DNase (Sigma), the cDNA was transcribed using SuperScript III Reverse Transcriptase (Invitrogen). An amount of 1 μg of cDNA template was used for the qRT-PCR using SYBR Green qPCR Mastermix (Qiagen). Analysis was performed in triplicates using GAPDH as a control gene. The PCR was performed on a 7900HT Fast Real-Time PCR System (Applied Biosystems). The following primers were used: […]

ΔXPA cells = test: Short-term survival after UV irradiation (CellTiter-Glo); details: 0.5 mM acetohexamide for 6 hours, then UV; survival after 3 days (FIG. 1D)
Source text: A. Schematic representation of the experimental setup used to perform the high-throughput drug screen, where drugs were used at five-times maximal plasma concentration (CLOUD; CeMM library of unique drugs). B. Bubble plot displaying the drugs used plotted against cell viability. Light grey bubbles indicate wildtype (WT) cells, dark grey bubbles indicate XPA-deficient cells (ΔXPA). […] C. Chemical structure of acetohexamide. D. Dose-response curve of WT and ΔXPA cells treated with or without 0.5 mM acetohexamide for 6 hours, followed by UV irradiation. Survival was assessed after 3 days, using CellTiter-Glo. […] Error bars indicate SEM (n=3). E. Colony formation using the same conditions indicated in (D), where cells were kept in culture for 10 days following UV irradiation, following which they were fixed and stained.
A-C. Cell viability of ΔXPA cells treated with different concentrations of acetohexamide (aceto), gliclazide (GLC) and glimepiride (GLM) for 6 hours, followed by 10 J/M^2 of UV irradiation. D. Survival of WT and ΔXPA cells treated with or without 50 μM glibenclamide for 6 hours, followed by UV exposure. Survival was assessed after 3 days using CellTitre-Glo. E. Cell viability of ΔXPA cells treated with 10 μM of different derivatives of acetohexamide for 6 hours, followed by UV irradiation with 5 J/M^2.
For UV irradiation, cells were washed with PBS, trypsinized, counted and distributed in equal number then irradiated with different doses of UV as indicated. Finally, 1,000 cells were re-distributed into 96 well plates. After 72 hours, survival was measured using Cell Titer-Glo (Promega). Cells were irradiated with UVC using the UVP CX-2000 device (254 nm, Fisher Scientific).

[2] = system: XPA^Δ/Δ patient-derived cells; test: Colony formation of XPA patient-derived fibroblasts after UV irradiation; details: 0.5 mM acetohexamide for 6 hours, then UV; 10 days (FIG. 2B)
Method: A. Dose-response curve of WT and ΔXPA cells treated with or without 0.5 mM acetohexamide for 6 hours, followed by illudin S treatment. Survival was assessed after 3 days using CellTiter-Glo. B. Colony formation of WT fibroblasts (BJ) and XPA-patient derived fibroblasts (XPA^Δ/Δ) treated with or without 0.5 mM acetohexamide for 6 hours, followed by UV irradiation (as indicated) and then kept in culture for 10 days. C. WT BJ and XPA^Δ/Δ fibroblastoid cells were treated with 0.5 mM acetohexamide for 6 hours, irradiated with 15 J/M^2 and then fixed and immunostained with an anti-cyclobutane pyrimidine dimer (CPD) antibody at the indicated times. Nuclear DNA was counterstained with DAPI. Scale bar, 10 μm. D. Scatter plot displaying the quantification of CPD intensities per nucleus of WT and XPA^Δ/Δ cells in the presence or absence of 0.5 mM acetohexamide, of more than 100 cells. Red lines within each column represent median intensities. A.u.=arbitrary unit.
HAP1 cells were cultured in Iscove's Modified Dulbecco's Medium (Gibco). […]
Cells were treated with UV at different doses with or without drug pre-treatment and then seeded into 6-well plates, at a density of 1,000 cells/well, in duplicates for 2 weeks until visible colonies were formed. […] Next, the staining solution was removed and the wells were washed, imaged and quantified using CellProfiler.

SMILES: CC(=O)c1ccc(S(=O)(=O)NC(=O)NC2CCCCC2)cc1 [acetohexamide]
- correction of survival of ΔXPA cells compared to wildtype cells [1]: > 40%
- SUR1 expression (SUR1 transcript): not expressed
- UV sensitivity of ΔXPA cells, short-term dose response assay (ΔXPA cells): alleviated the UV sensitivity of ΔXPA cells almost to the level of wildtype cells
- UV-induced cell death of XPA^Δ/Δ patient-derived cells [2]: could alleviate UV-induced cell death of XPA^Δ/Δ patient-derived cells
